According to patent US20250066356A1, “LRRK2 INHIBITORS” (INTERLINE THERAPEUTICS, INC., priority 2022, published 2025):

What was measured:
LRRK2 wild type enzyme = LRRK2 wild type enzyme (Homo sapiens, UniProt Q5S007); assay: LRRK2 biochemical assay (LanthaScreen TR-FRET, LRRKtide substrate); details: LRRK2 inhibition; 3 nM LRRK2, 400 nM LRRKtide, 25 μM ATP, 120 min, 23° C.
Protocol: 10 mM compound solution was prepared in DMSO. An 11-point, 3-fold dilution was performed, with highest concentration at 10 μM. A 10 mM compound DMSO solution was added to Labcyte LDV plate and the compound concentration of source plate was 10 mM. The 1 st compound concentration of Inter plate (Labcyte 384 well PP plate) was 4.938×10^−1 mM which was prepared by transferring 1.5 μL of 10 mM compound from source plate to 28.9 μL DMSO. The 2nd compound concentration of Inter plate was 1.829×10^−2 mM which was prepared by transferring 60 nL of 10 mM compound from source plate to 32.7 μL DMSO. The 3rd compound concentration of Inter plate was 6.774×10^−4 mM which was prepared by transferring 2.5 nL of 10 mM compound from source plate to 36.9 μL DMSO. 100 nL of reference compound was dispensed in column 1 for low control wells and 100 nL of DMSO in column 24 for high control wells. Compounds were dispensed to column 2 to 23 of assay plate and backfilled with DMSO to a total volume of 100 nL.
A 2×LRRK2 enzyme solution (final concentration 3 nM) was prepared in assay buffer (Tris-HCl pH8.0: 50 mM, MgCl2: 5 mM, EDTA: 1 mM, Brij-35: 0.01%, 2 mM DTT). A 2× substrate solution was prepared: LRRK2 tide substrate (final concentration 400 nM) and ATP (final concentration 25 μM) in assay buffer. 5 μL 2×LRRK2 enzyme solution was dispensed to each well in assay plate by Multidrop. Assay plate was spun at 1,000 rpm for 1 min and incubated for 15 min at 23° C. 5 μL 2×ATP/LRRKtide solution was dispensed to each well in assay plate by Multidrop. Assay plate was spun at 1,000 rpm for 1 min and incubated for 120 min at 23° C.
A 2× detection solution was prepared: Tb-pERM (pLRRKtide) antibody (final concentration 0.25 nM) and EDTA (final concentration 10 mM) in TR-FRET dilution buffer. 10 μL 2× detection solution was dispensed to each well in assay plate to stop kinase reaction by Multidrop. Assay plate was spun at 1,000 rpm for 1 min and incubate for 30 min at 23° C. Assay plate was then read on Envision configured for LanthaScreen® TR-FRET.

[1] = target: T1, phosphorylation at Ser935 on wild type LRRK2 overexpressed in recombinant HEK-293T cells (Homo sapiens, UniProt Q5S007); assay: pS935 LRRK2 Cell Assay (HTRF); assay type: cell-based; details: LRRK2 inhibition; pS935 LRRK2 in transfected HEK293T cells, 2 hours compound incubation
T1 construct: host or cells: HEK293T, transient transfection
Text: The following protocol describes an in-vitro method for measuring phosphorylation at Ser935 on wild type LRRK2 overexpressed in recombinant HEK-293T cells. The method is based on HTRF technology, which combines Fluorescence Resonance Energy Transfer (FRET) with Time-Resolved measurement (TR). Phospho-LRRK2 (Ser935) is detected in a sandwich assay format using two different specific antibodies, one labelled with Eu^3+-Cryptate (donor) and the second with d2 (acceptor). When the fluorophores are in close proximity, excitation of the donor with a light source (flash lamp) stimulates FRET to the acceptor, which in turn fluoresces at a specific wavelength (665 nm). The fluorescence emission at 615 nm from the donor is also measured to allow ratiometric reduction of data. The specific signal is proportional to phospho-LRRK2 (Ser935).
Plasmid transient transfection: DMEM medium, FBS, DPBS, Trans-IT, OPTI-MEM reagents were allowed to warm to room temperature. HEK293T cells were cultured in DMEM+10% FBS complete medium in T150 flasks till around 80% confluency before transfection. Then cells were washed with 10 mL PBS and detached with 3 mL 0.25% typinsin. 30×10E6 HEK293T cells were seeded in DMEM+10% FBS complete medium to a 15 cm dish.
DNA, TransIT-LT1, OPTI-MEM complex were prepared: […] OPTI-MEM was added to a 15 mL cone tube, then […] plasmid was added to OPTI-MEM and mixed, followed by addition of 60 L TransIT-LT1 to the plasmid OPTI-MEM mixture and mixing. The resulting mixture was incubated for 15 minutes.
The above plasmid, DNA and OPTI-MEM mixture was added dropwise to the 15 cm dish, ensuring the drops were evenly distributed. The culture dish was gently rocked back and forth and from left to right to evenly distribute the complex. The transfected dish was incubated for 24 hours at 37° C., and 5% CO2.
Transfected HEK293T was collected in the 15 cm dish. Media was aspirated from tissue culture dish, and washed by dispensing 10 mL 1×DPBS into 15 cm dish. 1×DPBS was aspirated and 3 mL trypsin was dispensed to 15 cm dish. The dish was incubated with trypsin at room temperature for 3 min until the cells were detached. 10 mL of DMEM+10% FBS medium were added to 15 cm dish and triturated to ensure homogenous cell suspensions.
Homogenous cell suspensions were transferred to a 50 mL tube, and centrifuged for 5 minutes at 1,000 rmp/min. The supernatant was aspirated and resuspended with 20 mL complete medium. 1 mL of cell suspension was transferred for cell counting. The cell suspension was diluted to 2×10E5 cells/ml. 50 L cell suspensions were added to a 384-well plate. The plate was quick spun at 800 rpm for 1 minute, then incubate overnight at 37° C., 5% CO2.
Compound dispensing: compound was diluted (10 mM DMSO stock solution) and added to assay plate (top concentration: 10 μM, 3 fold serial dilution, 9 doses) with duplicates by Tecan liquid handler. The DMSO concentration of each well was normalized to 0.2%. Plates were quick spun at 1,000 rpm for 1 minute. Plates were incubated at 37° C., 5% CO2 for 2 hours.
1× lysis buffer solution supplemented with blocking reagent was prepared (e.g. 1 mL lysis buffer 4×+3 mL water+40 L stock blocking reagent 100×). Antibodies working solution was prepared by diluting 40-fold d2 and Cryptate antibodies with detection buffer (e.g. 1520 L detection buffer+40 L d2-antibody stock solution+[…] Cryptate-antibody stock solution).
After 2 hours incubation, cell plates were taken out from the incubator. Medium was removed by plate washer, then 16 µL of supplemented lysis buffer was added 1× to each well and incubated for 30 minutes at room temperature under shaking (800 rpm/min). 4 µL of antibodies working solution was added to each well, covered with a top seal and incubated overnight in 23° C. incubator.
HTRF signal was read (665 nm and 615 nm) on Wallac 2104 EnVision® multilabel reader. Data were analyzed by XL fit software.

Sequence of LRRK2 wild type enzyme (Q5S007 whole entry): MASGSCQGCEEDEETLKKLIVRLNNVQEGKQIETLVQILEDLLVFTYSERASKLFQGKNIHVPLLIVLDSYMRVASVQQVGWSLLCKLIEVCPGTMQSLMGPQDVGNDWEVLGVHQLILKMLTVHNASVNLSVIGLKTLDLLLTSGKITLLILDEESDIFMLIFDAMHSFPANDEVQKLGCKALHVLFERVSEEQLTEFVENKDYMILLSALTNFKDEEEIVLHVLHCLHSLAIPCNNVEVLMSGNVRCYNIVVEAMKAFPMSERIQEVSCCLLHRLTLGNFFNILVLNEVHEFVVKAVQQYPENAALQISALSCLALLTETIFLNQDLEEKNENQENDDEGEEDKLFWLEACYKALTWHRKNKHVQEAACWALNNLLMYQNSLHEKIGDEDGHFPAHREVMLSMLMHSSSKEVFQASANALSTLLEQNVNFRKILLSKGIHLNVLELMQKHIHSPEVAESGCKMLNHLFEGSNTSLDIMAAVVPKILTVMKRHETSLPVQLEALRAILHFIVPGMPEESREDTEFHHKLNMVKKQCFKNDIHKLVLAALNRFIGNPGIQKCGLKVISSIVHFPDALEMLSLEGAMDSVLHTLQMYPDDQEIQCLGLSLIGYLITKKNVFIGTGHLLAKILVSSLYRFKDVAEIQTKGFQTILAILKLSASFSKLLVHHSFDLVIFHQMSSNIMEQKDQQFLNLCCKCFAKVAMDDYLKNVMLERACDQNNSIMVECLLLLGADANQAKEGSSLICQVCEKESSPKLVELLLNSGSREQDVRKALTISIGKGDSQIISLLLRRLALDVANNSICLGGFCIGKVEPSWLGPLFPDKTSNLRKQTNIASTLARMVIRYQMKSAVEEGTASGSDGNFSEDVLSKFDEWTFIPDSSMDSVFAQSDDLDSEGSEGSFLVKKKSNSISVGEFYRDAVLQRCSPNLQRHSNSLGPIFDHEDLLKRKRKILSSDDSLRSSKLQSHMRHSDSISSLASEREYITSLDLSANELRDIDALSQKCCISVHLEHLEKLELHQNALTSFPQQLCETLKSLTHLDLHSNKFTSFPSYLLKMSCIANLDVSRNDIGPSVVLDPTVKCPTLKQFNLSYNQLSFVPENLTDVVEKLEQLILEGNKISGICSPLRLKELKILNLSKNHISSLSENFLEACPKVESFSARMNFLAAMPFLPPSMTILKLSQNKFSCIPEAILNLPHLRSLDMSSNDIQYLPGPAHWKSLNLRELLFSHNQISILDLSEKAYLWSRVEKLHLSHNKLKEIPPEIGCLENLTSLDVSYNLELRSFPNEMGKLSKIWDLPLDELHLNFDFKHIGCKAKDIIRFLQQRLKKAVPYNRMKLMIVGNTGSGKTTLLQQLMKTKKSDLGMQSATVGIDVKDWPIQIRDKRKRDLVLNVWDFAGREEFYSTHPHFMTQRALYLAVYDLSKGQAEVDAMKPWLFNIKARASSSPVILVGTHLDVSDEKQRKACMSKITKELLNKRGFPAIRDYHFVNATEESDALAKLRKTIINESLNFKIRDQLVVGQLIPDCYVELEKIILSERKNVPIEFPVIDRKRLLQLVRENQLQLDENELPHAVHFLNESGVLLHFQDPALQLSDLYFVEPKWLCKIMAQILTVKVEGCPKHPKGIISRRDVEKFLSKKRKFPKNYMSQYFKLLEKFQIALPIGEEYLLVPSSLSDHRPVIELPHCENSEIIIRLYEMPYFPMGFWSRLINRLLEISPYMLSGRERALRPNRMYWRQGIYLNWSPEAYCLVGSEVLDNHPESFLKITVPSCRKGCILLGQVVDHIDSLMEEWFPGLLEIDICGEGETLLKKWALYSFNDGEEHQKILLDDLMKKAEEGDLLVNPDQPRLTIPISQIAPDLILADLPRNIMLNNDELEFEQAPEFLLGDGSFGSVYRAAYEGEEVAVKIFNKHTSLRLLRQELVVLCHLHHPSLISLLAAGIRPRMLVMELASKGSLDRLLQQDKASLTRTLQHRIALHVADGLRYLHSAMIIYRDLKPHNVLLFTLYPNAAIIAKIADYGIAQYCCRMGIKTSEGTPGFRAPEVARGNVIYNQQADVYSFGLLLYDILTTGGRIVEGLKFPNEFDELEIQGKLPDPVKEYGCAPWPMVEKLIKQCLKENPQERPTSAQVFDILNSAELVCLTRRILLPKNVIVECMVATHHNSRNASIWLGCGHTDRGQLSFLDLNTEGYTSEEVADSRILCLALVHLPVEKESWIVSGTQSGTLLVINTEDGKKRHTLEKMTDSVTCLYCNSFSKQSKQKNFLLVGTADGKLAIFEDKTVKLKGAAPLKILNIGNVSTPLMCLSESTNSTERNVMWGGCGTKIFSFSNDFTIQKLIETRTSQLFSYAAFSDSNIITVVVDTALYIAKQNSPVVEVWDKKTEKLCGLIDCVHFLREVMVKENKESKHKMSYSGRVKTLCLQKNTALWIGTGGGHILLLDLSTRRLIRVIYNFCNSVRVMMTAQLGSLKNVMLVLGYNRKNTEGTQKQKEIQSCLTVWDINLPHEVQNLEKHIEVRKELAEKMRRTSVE
T1 sequence (Q5S007 whole entry): as above

SMILES	IC50 (LRRK2 wild type enzyme) [nM]	IC50 [1] [nM]
C[C@@H]1C[C@H](n2c(Cc3noc(=O)[nH]3)nc3cnc4ccc(C#N)cc4c32)CCO1 [Compound 14, 1-[(2R,4R)-2-methyloxan-4-yl]-2-[(5-oxo-4,5-dihydro-1,2,4-oxadiazol-3-yl)methyl]-1H-imidazo[4,5-c]quinoline-8-carbonitrile]	7.84	> 10000
C[C@@H]1C[C@H](n2c(Cc3noc(=O)[nH]3)nc3cnc4ccc(Cl)cc4c32)CCO1 [Compound 15, 3-({8-chloro-1-[(2R,4R)-2-methyloxan-4-yl]-1H-imidazo[4,5-c]quinolin-2-yl}methyl)-4,5-dihydro-1,2,4-oxadiazol-5-one]	3.23	> 10000
C[C@@H]1C[C@H](n2c(Cn3ccc(=O)c(C(=O)O)c3)nc3cnc4ccc(C#N)cc4c32)CCO1 [Compound 17, 1-({8-cyano-1-[(2R,4R)-2-methyloxan-4-yl]-1H-imidazo[4,5-c]quinolin-2-yl}methyl)-4-oxo-1,4-dihydropyridine-3-carboxylic acid]	2.88	2950
COC(=O)c1cn(Cc2nc3cnc4ccc(C#N)cc4c3n2[C@@H]2CCO[C@H](C)C2)ccc1=O [Compound 18, methyl 1-({8-cyano-1-[(2R,4R)-2-methyloxan-4-yl]-1H-imidazo[4,5-c]quinolin-2-yl}methyl)-4-oxo-1,4-dihydropyridine-3-carboxylate]	2.64	7020
COC(=O)c1cccn(Cc2nc3cnc4ccc(C#N)cc4c3n2[C@@H]2CCO[C@H](C)C2)c1=O [Compound 19, methyl 1-({8-cyano-1-[(2R,4R)-2-methyloxan-4-yl]-1H-imidazo[4,5-c]quinolin-2-yl}methyl)-2-oxo-1,2-dihydropyridine-3-carboxylate]	8.03	592
C[C@@H]1C[C@H](n2c(Cc3cn([C@H]4C[C@@H](S(C)(=O)=O)C4)nn3)nc3cnc4ccc(C#N)cc4c32)CCO1 [Compound 21]	1.41	1770
